Test results as given in patent US10834950B2, “Organic compounds” (GIVAUDAN SA, priority 2013, dated 2020).

How the values were obtained:
[1] = Umami base flavour (aqueous NaCl, MSG, ribonucleotides) tasting by panel
[2] = Milk drink (semi skim milk) tasting by panel; conditions: 5 ppm added to semi skim milk drink
[3] = Diluted soy sauce tasting by panel; conditions: 5 ppm added to diluted soy sauce
[4] = Beef bouillon tasting by a panel of experienced tasters; conditions: 40 ppb added to beef bouillon
Method: A beef bouillon was prepared using bouillon cubes obtained from a local supermarket.

[5] = 5 ppm added to umami base flavour

| Structure (SMILES) | taste of milk drink compared to the reference (panel) [2] | taste of umami base compared to the reference (panel) [1, 5] | taste of bouillon compared to the reference (panel) [4] | further results |
| --- | --- | --- | --- | --- |
| CCCCCCCCCCCC(=O)NC(Cc1c[nH]c2ccccc12)C(=O)O (stereo not drawn) [2-(dodecanoylamino)-3-(1H-indol-3-yl)propanoic acid] |  |  |  | taste of umami base compared to the reference (panel) ([1]; 20 ppm added to umami base flavour): more fatty mouthfeel than the reference |
| CCCCCCCCCCCCCC(=O)NC(Cc1c[nH]c2ccccc12)C(=O)O (stereo not drawn) [3-(1H-indol-3-yl)-2-tetradecanamidopropanoic acid] | very creamy aftertaste, and a nice and slightly dryness at the front compared to the reference | more umami than the reference |  | taste of soy sauce compared to the reference (panel) [3]: more mouthfeel, and fuller compared to the reference |
| CCCCCC/C=C\CCCC(=O)NC(Cc1c[nH]c2ccccc12)C(=O)O (stereo not drawn) [(Z)-2-(dodec-5-enamido)-3-(1H-indol-3-yl)propanoic acid] | slightly increased creamy than the reference | more umami than the reference |  |  |
| CCCCCC/C=C\CCCC(=O)NC(Cc1ccccc1)C(=O)O (stereo not drawn) [Example 1, (Z)-2-(Dodec-5-enamido)-3-phenylpropanoic acid] |  |  | more umami, slightly more sweet, and the overall flavor profile lasts longer than the reference |  |
| CCCCCC/C=C\CCCC(=O)NC(Cc1ccc(O)cc1)C(=O)O (stereo not drawn) [Example 2, (Z)-2-(Dodec-5-enamido)-3-(4-hydroxyphenyl)propanoic acid] |  |  | slightly more umami, slightly more bitter and sweeter than the reference |  |
| CCCCCCCCCCCC(=O)NC(Cc1ccccc1)C(=O)O (stereo not drawn) [Example 3, 2-(Dodecanoylamino)-3-phenylpropanoic acid] |  |  |  | taste of umami base compared to the reference (panel) ([1]; 50 ppm added to umami base flavour): more umami, and thicker, possessed a lot of mouthfeel and a nice body, and provided a cleaner taste than the reference |
